Test results as given in patent publication US20020086885A1, “Pharmaceutical composition” (priority 1998, published 2002).
Structures can show the parent of a compound that is named as a salt.

Legend:
[1] = test system: obese, diabetic KKA^y mice; settings: cited from earlier work
[2] = test system: obese rats; settings: given together with troglitazone; cited from earlier work
[3] = test system: noninsulin-dependent diabetic mellitus (NIDDM) patients; experiment: Concomitant administration of pioglitazone hydrochloride and mazindol in NIDDM patients; assay type: in vivo, human
From the text: Effects of concomitant administration of pioglitazone hydrochloride and mazindol in noninsulin-dependent diabetic mellitus (NIDDM) patients were studied.

## N=C(N)NCCC(=O)O [3-Guanidinopropionic acid]
[1]
  weight gain in mice treated with pioglitazone hydrochloride: antagonizes in a dose-dependent manner

## C[C@H](Cc1ccc2c(c1)OC(C(=O)[O-])(C(=O)[O-])O2)NC[C@H](O)c1cccc(Cl)c1.[Na+].[Na+] [CL316243]
[2]
  weight gain in brown adipose tissues caused by troglitazone: completely inhibited

## OC1(c2ccc(Cl)cc2)c2ccccc2C2=NCCN21 (stereo not shown) [mazindol]
[3]; one NIDDM patient, mazindol 0.5 mg/day oral with placebo, 12 weeks, baseline 60.0 kg
  body weight change: 0.00 kg

## CCc1ccc(CCOc2ccc(CC3SC(=O)NC3=O)cc2)nc1 (stereo not shown) [pioglitazone hydrochloride, 5-[4-[2-(5-ethyl-2-pyridyl)ethoxy]benzyl]-2,4-thiazolidinedione]
[3]; NIDDM patients, pioglitazone hydrochloride alone 45 mg/day oral, 12±2 weeks, means±standard deviation of 50 samples
  body weight increased by: 0.72 ± 2.06 kg
